# Experimental data: patent US20090181972A1, “Novel Inhibitors of Cysteine Proteases, the Pharmaceutical Compositions Thereof and their Therapeutic Applications” (priority 2005, published 2009)
# Tests used:
# [1] = tested on: HCT116 colon cancer cells; experiment: HCT116 cell viability and proliferation assay (MTS); type: cell-based; details: Homo sapiens, HCT-116, 72 hours incubation, mean of three independent experiments, read-out: HCT116 GI50 D3
# Procedure: HCT116 colon cancer cells were obtained from ATCC (American Type Culture Collection), and maintained in Mc Coy's 5A medium containing 10% FBS, 3 mM glutamine and 1% penicillin/streptomycin. Cells were incubated at 37° C. in a humidified atmosphere containing 5% CO2.
# (§1) Cell viability was assayed using the MTS technique in 96-well culture plates (CellTiter 96® Aqueous Non-Radioactive Cell Proliferation Assay, Promega) according to the manufacturer's instructions. MTS (3-(4,5-dimethyl-thiazol-2-yl)-5-(3-carboxymethoxyphenyl)-2-(4-sulfophenyl)-2H-tetra-zolium) is a MTT-derived tetrazolium that is reduced in metabolically active cells into a soluble, cell-permeant formazan. The amount of formazan, detected by its absorbance at 492 nm is proportional to the number of living, metabolically active cells.
# (§2) 10^3 HCT116 cells were seeded per well. 24 hours later, the medium was changed and the cells treated in triplicate with the following concentrations of each compound: 10 μM-3.33 μM-1.11 μM-370 nM-123 nM-41 nM-14 nM and 5 nM. The compounds were diluted in 100% DMSO, whose final concentration on cells was kept at 0.5%.
# (§3) Cells were incubated with the compounds for 72 hours, and their viability then assayed by the addition of MTS for 2 hours. Absorbance at 492 nm was measured directly from the 96-well culture plates. G150 (Growth Inhibition 50) concentrations for each compound were calculated using a sigmoidal variable slope fit (Prism 4.0, Graphpad Softwares). Values represent mean of three independent experiments.
# USP5 = target: T1, USP5 (Homo sapiens, UniProt P45974); experiment: USP5 activity assay; type: biochemical; details: 400 nM Ub-AMC, 300 pM enzyme; pre-incubated 30 minutes at 25° C., 60 minutes at 37° C.; sigmoidal fit; read-out: USP 5
# T1 sequence (P45974 1-858): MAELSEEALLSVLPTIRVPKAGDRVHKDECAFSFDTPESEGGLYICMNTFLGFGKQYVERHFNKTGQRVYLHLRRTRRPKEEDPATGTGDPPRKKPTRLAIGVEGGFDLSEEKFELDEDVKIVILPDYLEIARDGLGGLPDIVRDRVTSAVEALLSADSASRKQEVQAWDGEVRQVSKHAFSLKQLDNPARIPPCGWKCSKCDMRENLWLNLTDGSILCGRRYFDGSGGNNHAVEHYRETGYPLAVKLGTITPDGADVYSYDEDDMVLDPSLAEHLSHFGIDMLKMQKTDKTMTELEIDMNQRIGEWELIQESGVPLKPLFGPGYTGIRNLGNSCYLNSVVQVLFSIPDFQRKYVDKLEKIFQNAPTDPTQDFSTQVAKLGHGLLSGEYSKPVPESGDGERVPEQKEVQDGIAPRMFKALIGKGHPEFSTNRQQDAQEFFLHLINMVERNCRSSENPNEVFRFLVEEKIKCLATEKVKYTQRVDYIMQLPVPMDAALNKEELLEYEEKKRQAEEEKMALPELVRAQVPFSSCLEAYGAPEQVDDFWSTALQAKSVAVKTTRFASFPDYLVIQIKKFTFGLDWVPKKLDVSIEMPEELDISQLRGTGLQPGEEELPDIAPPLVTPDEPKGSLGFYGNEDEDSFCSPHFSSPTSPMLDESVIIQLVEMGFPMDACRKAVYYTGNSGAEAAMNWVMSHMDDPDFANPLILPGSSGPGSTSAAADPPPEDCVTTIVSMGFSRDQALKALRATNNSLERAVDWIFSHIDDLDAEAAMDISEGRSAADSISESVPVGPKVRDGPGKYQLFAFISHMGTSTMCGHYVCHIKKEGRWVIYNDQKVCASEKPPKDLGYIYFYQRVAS
# Procedure: USP5 was diluted in USP buffer (50 mM Tris HCl; 0.5 mM EDTA; 5 mM DTT; 0.01% Triton X-100; Bovine Serum Albumin 0.05 mg.ml^−1 pH 7.6). Compounds stocks (100 mM) were stored at -20° C. in DMSO.
# (§4) Reactions were performed as duplicates in Black LJL 96 well plates (HE microplates; Molecular Devices; 20 μl final reaction volume). The substrate concentration for USP5 was 400 nM Ub-AMC (Boston Biochem). The concentrations of the enzyme (USP5) in specificity assays was 300 pM. The concentrations were determined in order to perform specificity assays under initial velocities at fixed substrate concentration. Compounds were pre-incubated with enzymes for 30 minutes at 25° C. Reactions were initiated by addition of substrate to the plates containing the enzymes (+/− compounds) diluted in assay buffer. Reactions were incubated for 60 minutes at 37° C. Reactions were stopped by adding acetic acid (100 mM final). Readings were performed on a Pherastar Fluorescent Reader (BMG). λ Emission 380 nm; λ Excitation=460 nm. Data (mean values +/− standard deviation) were analyzed as % of control (no compound) and plotted as percentage versus the Log of the compound concentration using GraphPad (Prism). Data were fitted to a sigmoidal model (variable slope).
# [2] = tested on: PC-3 prostate cancer cells; experiment: PC3 cell viability and proliferation assay (MTS); type: cell-based; details: Homo sapiens, PC-3, 72 hours incubation, mean of three independent experiments, read-out: PC3 GI50 D3
# Procedure: PC-3 prostate cancer cells were obtained from ATCC, and maintained in F-12K medium containing 7% FBS and 1% penicillin/streptomycin. Cells were incubated at 37° C. in a humidified atmosphere containing 5% CO2.
# as §1, with “(3-(4,5-dimethyl-thiazol-2-yl)-5-(3-carboxymethoxyphenyl)-2-(4-sulfophenyl)-2H-tetrazolium)” for “(3-(4,5-dimethyl-thiazol-2-yl)-5-(3-carboxymethoxyphenyl)-2-(4-sulfophenyl)-2H-tetra-zolium)”
# as §2, with “2×10^3 PC3” for “10^3 HCT116”
# as §3, with “GI50” for “G150”
# USP7 = target: T2, USP7 (Homo sapiens, UniProt Q93009); experiment: USP7 activity assay; type: biochemical; details: 400 nM Ub-AMC, 152 pM enzyme; pre-incubated 30 minutes at 25° C., 60 minutes at 37° C.; sigmoidal fit; read-out: USP 7
# T2 construct: His tag (pFastBac-HT vector) (N); made in house; host or cells: Sf9 or High Five insect cells (baculovirus)
# From the text: The cDNA encoding USP7 was obtained by PCR amplification from placenta mRNA. USP7 cDNA was subcloned by PCR into a baculovirus expression vector (pFastBac-HT; Invitrogen). A cDNA encoding a mutated USP7 was generated by mutagenic PCR. The corresponding protein encodes a cysteine to alanine substitution at residue 223. The sequences were ascertained by sequencing of the entire open reading frame. Bacmids encoding USP7 were generated following DH10bac transposition. The corresponding bacmids were transfected into insect cells (Sf9). Viruses were recovered from culture supernatant and amplified twice. Insect cells (Sf9 or High Five; lnvitrogen) were infected for 72 hours. Total cell lysates were harvested and lyzed in lysis buffer (Tris HCl 50 mM pH 7.6; 0.75 % NP40; 500 mM NaCl; 10% glycerol; 1 mM DTT; 10 mM imidazole; Protease Inhibitor Cocktail; AEBSF 20 μg.ml^−1; Aprotinin 10 μg.ml^−1). Proteins were affinity purified on metal affinity resins (Talon Metal affinity resin; BD Biosciences). Bound materials were extensively washed in wash buffer (50 mM Sodium Phosphate pH 7.0; 300 mM NaCl; 10 mM imidazole; 0.5% Triton X-100; 10% glycerol) and eluted from the resin in 250 mM imidazole-containing wash buffer. Proteins were dialyzed in dialysis buffer (Tris HCl pH 7.6 20 mM; NaCl 200 mM; DTT 1 mM; EDTA 1 mM; 10% Glycerol). Proteins purifications were analyzed on 4-12% NuPAGE (Invitrogen).
# USP7 was diluted in USP buffer (50 mM Tris HCl; 0.5 mM EDTA; 5 mM DTT; 0.01 % Triton X-100; Bovine Serum Albumin 0.05 mg.ml^−1 pH 7.6). Compounds stocks (100 mM) were stored at −20° C. in DMSO. Compounds were tested at the following final concentrations: 100 μM; 33.3 μM; 11.1 μM; 3.7 μM; 1.23 μM; 412 nM; 137 nM; 45.7 nM; 15.2 nM; 5 nM.
# as §4, with “USP7” for “USP5”, “Ub-AMC (Chem. Biol., 2003, 10, p. 837-846)” for “Ub-AMC”, “(USP7)” for “(USP5)”, “152” for “300”
# T2 sequence (Q93009 whole entry): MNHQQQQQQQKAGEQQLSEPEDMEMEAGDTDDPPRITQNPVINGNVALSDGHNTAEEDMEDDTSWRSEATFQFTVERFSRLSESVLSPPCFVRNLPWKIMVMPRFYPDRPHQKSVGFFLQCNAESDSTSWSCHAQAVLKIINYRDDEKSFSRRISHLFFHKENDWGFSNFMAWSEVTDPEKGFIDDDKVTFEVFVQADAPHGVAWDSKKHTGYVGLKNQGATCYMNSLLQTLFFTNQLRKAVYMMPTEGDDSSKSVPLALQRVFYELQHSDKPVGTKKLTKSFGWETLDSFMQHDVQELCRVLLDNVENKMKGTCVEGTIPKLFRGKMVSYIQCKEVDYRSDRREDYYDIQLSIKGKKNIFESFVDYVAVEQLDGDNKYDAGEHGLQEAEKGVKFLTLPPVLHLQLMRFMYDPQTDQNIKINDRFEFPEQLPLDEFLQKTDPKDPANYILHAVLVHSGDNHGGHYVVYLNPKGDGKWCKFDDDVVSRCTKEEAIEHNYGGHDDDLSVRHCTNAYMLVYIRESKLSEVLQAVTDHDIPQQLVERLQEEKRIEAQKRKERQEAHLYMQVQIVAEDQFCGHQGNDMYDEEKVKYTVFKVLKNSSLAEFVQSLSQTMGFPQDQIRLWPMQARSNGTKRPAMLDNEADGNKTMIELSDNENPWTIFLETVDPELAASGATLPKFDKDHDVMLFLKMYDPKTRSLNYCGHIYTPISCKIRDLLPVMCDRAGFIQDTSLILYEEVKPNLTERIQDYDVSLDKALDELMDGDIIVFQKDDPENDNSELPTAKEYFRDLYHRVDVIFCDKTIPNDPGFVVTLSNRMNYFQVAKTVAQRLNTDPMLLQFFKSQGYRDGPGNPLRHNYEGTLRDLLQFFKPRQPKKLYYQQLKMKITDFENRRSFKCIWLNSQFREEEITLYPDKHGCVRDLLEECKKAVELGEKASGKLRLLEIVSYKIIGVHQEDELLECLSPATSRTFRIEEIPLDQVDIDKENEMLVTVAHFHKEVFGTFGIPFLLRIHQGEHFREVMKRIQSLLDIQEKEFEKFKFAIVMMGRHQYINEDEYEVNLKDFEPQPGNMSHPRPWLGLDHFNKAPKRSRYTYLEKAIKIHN
SMILES,GI50 [1],IC50 (USP5),GI50 [2],IC50 (USP7)
"O=C1c2ccccc2-c2nn3c(C4CC4)nnc3nc21 [Example 1j/B, 3-Cyclopropyl-1,2,3a,4,10-pentaaza-cyclopenta[b]fluoren-9-one]",160 nM,317 nM,107 nM,–
"O=C1c2ccccc2-c2nc3nnc(Cc4ccccc4)n3nc21 [Example 1k/A, 1-Benzyl-2,3,4,10,10a-pentaaza-cyclopenta[b]fluoren-9-one]",–,34800 nM,–,–
"O=C1c2ccccc2-c2nn3c(Cc4ccccc4)nnc3nc21 [Example 1k/B, 3-Benzyl-1,2,3a,4,10-pentaaza-cyclopenta[b]fluoren-9-one]",149 nM,206 nM,235 nM,–
"O=C1c2ccccc2-c2nc3nn(Cc4ccccc4)nc3nc21 [Example 4b, 2-Benzyl-2H-1,2,3,4,10-pentaaza-cyclopenta[b]fluoren-9-one]",–,> 100000 nM,–,> 100000 nM
